{
  "source": "ChEMBL document CHEMBL1153483",
  "about": "“Synthesis and evaluation of novel substituted 5-hydroxycoumarin and pyranocoumarin derivatives exhibiting significant antiproliferative activity against breast cancer cell lines” (Bioorg Med Chem Lett, 2009)",
  "key": {"[1]": {"tested_on": "MDA-MB-231", "experiment": "Antiproliferative activity against human MDA-MB-231 cells after 48 hrs by MTT assay", "assay_type": "functional, cell-based"}, "[2]": {"tested_on": "MCF7", "experiment": "Antiproliferative activity against human MCF7 cells after 48 hrs by MTT assay", "assay_type": "functional, cell-based"}, "[3]": {"conditions": "Homo sapiens, MCF7, 48 h, read-out: IC50; call rule not given here"}, "[4]": {"conditions": "Homo sapiens, MDA-MB-231, 48 h, read-out: IC50"}},
  "data": [
    {"smiles": "CCCc1cc(=O)oc2cc(I)c3c(c12)OC(C)(C)C=C3", "values": [
      {"measurement": "IC50", "setting": "[1]; mda-mb-231", "result": "Not Active"},
      {"measurement": "IC50", "setting": "[2]; [3]", "result": 13.7, "unit": "µM"}
    ]},
    {"smiles": "CCCc1cc(=O)oc2cc(-c3cccc4c3Sc3ccccc3S4)c3c(c12)OC(C)(C)C=C3", "values": [
      {"measurement": "IC50", "setting": "[1]; mda-mb-231", "result": "Not Active"},
      {"measurement": "IC50", "setting": "[2]; [3]", "result": "> 100", "unit": "µM"}
    ]},
    {"smiles": "Cc1cc(=O)oc2cc(I)c3c(c12)OC(C)(C)C=C3", "values": [
      {"measurement": "IC50", "setting": "[1]; mda-mb-231", "result": "Not Active"},
      {"measurement": "IC50", "setting": "[2]; [3]", "result": 30.7, "unit": "µM"}
    ]},
    {"smiles": "Cc1cc(=O)oc2cc(-c3ccc(NC(=O)CCC(=O)O)cc3)c3c(c12)OC(C)(C)C=C3", "values": [
      {"measurement": "IC50", "setting": "[1]; mda-mb-231", "result": "Not Active"},
      {"measurement": "IC50", "setting": "[2]; mcf7", "result": "Not Active"}
    ]},
    {"smiles": "CCCc1cc(=O)oc2cc(-c3cc4ccccc4s3)cc(O)c12", "values": [
      {"measurement": "IC50", "setting": "[1]; [4]", "result": 50, "unit": "µM"},
      {"measurement": "IC50", "setting": "[2]; [3]", "result": 22.3, "unit": "µM"}
    ]},
    {"smiles": "CCCc1cc(=O)oc2cc(-c3cccc4c3Sc3ccccc3S4)cc(O)c12", "values": [
      {"measurement": "Activity", "setting": "[1]", "result": "Dose-dependent effect"},
      {"measurement": "IC50", "setting": "[1]; [4]", "result": 7.9, "unit": "µM"},
      {"measurement": "Activity", "setting": "[2]", "result": "Dose-dependent effect"},
      {"measurement": "IC50", "setting": "[2]; [3]", "result": 14.4, "unit": "µM"}
    ]},
    {"smiles": "CC1(C)C=Cc2c(-c3cccc4c3Sc3ccccc3S4)cc3oc(=O)cc(-c4ccccc4)c3c2O1", "values": [
      {"measurement": "Activity", "setting": "[1]", "result": "Dose-dependent effect"},
      {"measurement": "IC50", "setting": "[1]; [4]", "result": 33.6, "unit": "µM"},
      {"measurement": "Activity", "setting": "[2]", "result": "Dose-dependent effect"},
      {"measurement": "IC50", "setting": "[2]; [3]", "result": 7.2, "unit": "µM"}
    ]},
    {"smiles": "O=c1cc(-c2ccccc2)c2c(O)cc(-c3cccc4c3Sc3ccccc3S4)cc2o1", "values": [
      {"measurement": "Activity", "setting": "[1]", "result": "Dose-dependent effect"},
      {"measurement": "IC50", "setting": "[1]; [4]", "result": 9.3, "unit": "µM"},
      {"measurement": "Activity", "setting": "[2]", "result": "Dose-dependent effect"},
      {"measurement": "IC50", "setting": "[2]; [3]", "result": 14.2, "unit": "µM"}
    ]},
    {"smiles": "Cc1cc(=O)oc2cc(I)cc(O)c12", "values": [
      {"measurement": "IC50", "setting": "[1]; mda-mb-231", "result": "Not Active"},
      {"measurement": "IC50", "setting": "[2]; [3]", "result": 18.3, "unit": "µM"}
    ]},
    {"smiles": "CCCc1cc(=O)oc2cc(-c3ccc(NS(C)(=O)=O)cc3)c3c(c12)OC(C)(C)C=C3", "values": [
      {"measurement": "Activity", "setting": "[1]", "result": "Dose-dependent effect"},
      {"measurement": "IC50", "setting": "[1]; [4]", "result": 27.2, "unit": "µM"},
      {"measurement": "Activity", "setting": "[2]", "result": "Dose-dependent effect"},
      {"measurement": "IC50", "setting": "[2]; [3]", "result": 3.3, "unit": "µM"}
    ]},
    {"smiles": "Cc1cc(=O)oc2cc(-c3ccc(NS(C)(=O)=O)cc3)c3c(c12)OC(C)(C)C=C3", "values": [
      {"measurement": "Activity", "setting": "[1]", "result": "Dose-dependent effect"},
      {"measurement": "IC50", "setting": "[1]; [4]", "result": 61.2, "unit": "µM"},
      {"measurement": "Activity", "setting": "[2]", "result": "Dose-dependent effect"},
      {"measurement": "IC50", "setting": "[2]; [3]", "result": 6.5, "unit": "µM"}
    ]},
    {"smiles": "CCCc1cc(=O)oc2cc(-c3cc4ccccc4s3)c3c(c12)OC(C)(C)C=C3", "values": [
      {"measurement": "IC50", "setting": "[1]; mda-mb-231", "result": "Not Active"},
      {"measurement": "IC50", "setting": "[2]; [3]", "result": 22.8, "unit": "µM"}
    ]},
    {"smiles": "CC1(C)C=Cc2c(-c3ccc(NC(=O)CCC(=O)O)cc3)cc3oc(=O)cc(-c4ccccc4)c3c2O1", "values": [
      {"measurement": "IC50", "setting": "[1]; mda-mb-231", "result": "Not Active"},
      {"measurement": "IC50", "setting": "[2]; mcf7", "result": "Not Active"}
    ]},
    {"smiles": "CCCc1cc(=O)oc2cc(I)cc(O)c12", "values": [
      {"measurement": "IC50", "setting": "[1]; mda-mb-231", "result": "Not Active"},
      {"measurement": "IC50", "setting": "[2]; [3]", "result": 26.8, "unit": "µM"}
    ]},
    {"smiles": "O=c1cc(-c2ccccc2)c2c(O)cc(-c3cc4ccccc4s3)cc2o1", "values": [
      {"measurement": "Activity", "setting": "[1]", "result": "Dose-dependent effect"},
      {"measurement": "IC50", "setting": "[1]; [4]", "result": 10.6, "unit": "µM"},
      {"measurement": "Activity", "setting": "[2]", "result": "Dose-dependent effect"},
      {"measurement": "IC50", "setting": "[2]; [3]", "result": 7.6, "unit": "µM"}
    ]},
    {"smiles": "Cc1cc(=O)oc2cc(-c3cc4ccccc4s3)c3c(c12)OC(C)(C)C=C3", "values": [
      {"measurement": "IC50", "setting": "[1]; [4]", "result": "> 100", "unit": "µM"},
      {"measurement": "IC50", "setting": "[2]; [3]", "result": 25.4, "unit": "µM"}
    ]},
    {"smiles": "O=c1cc(-c2ccccc2)c2c(O)cc(I)cc2o1", "values": [
      {"measurement": "IC50", "setting": "[1]; mda-mb-231", "result": "Not Active"},
      {"measurement": "IC50", "setting": "[2]; [3]", "result": 25, "unit": "µM"}
    ]},
    {"smiles": "CCCc1cc(=O)oc2cc(-c3ccc(NC(=O)CCC(=O)O)cc3)c3c(c12)OC(C)(C)C=C3", "values": [
      {"measurement": "IC50", "setting": "[1]; mda-mb-231", "result": "Not Active"},
      {"measurement": "IC50", "setting": "[2]; mcf7", "result": "Not Active"}
    ]},
    {"smiles": "CC1(C)C=Cc2c(I)cc3oc(=O)cc(-c4ccccc4)c3c2O1", "values": [
      {"measurement": "IC50", "setting": "[1]; mda-mb-231", "result": "Not Active"},
      {"measurement": "IC50", "setting": "[2]; [3]", "result": 54.3, "unit": "µM"}
    ]},
    {"smiles": "CC1(C)C=Cc2c(-c3cc4ccccc4s3)cc3oc(=O)cc(-c4ccccc4)c3c2O1", "values": [
      {"measurement": "IC50", "setting": "[1]; mda-mb-231", "result": "Not Active"},
      {"measurement": "IC50", "setting": "[2]; [3]", "result": 77.7, "unit": "µM"}
    ]},
    {"smiles": "CC1(C)C=Cc2c(-c3ccc(NS(C)(=O)=O)cc3)cc3oc(=O)cc(-c4ccccc4)c3c2O1", "values": [
      {"measurement": "Activity", "setting": "[1]", "result": "Dose-dependent effect"},
      {"measurement": "IC50", "setting": "[1]; [4]", "result": 28.9, "unit": "µM"},
      {"measurement": "Activity", "setting": "[2]", "result": "Dose-dependent effect"},
      {"measurement": "IC50", "setting": "[2]; [3]", "result": 5.3, "unit": "µM"}
    ]}
  ]
}
